# Entries after “also recorded” stand apart in the source; their conditions may differ.
# Columns and labels:
# [1] = Blood brain barrier penetration, LC-MS/MS of CSF, plasma and brain; format: in vivo; settings: mice, 10 mg/kg dose i.v., CSF and brain 4 hours after administration
# Procedure: Samples were collected 4 hours after i.v. administration of 10 mg/kg of Compound 6A in mice. […] Samples were collected 4 hours after i.v. administration of 10 mg/kg of Compound 6B in mice. […] Samples were collected 4 hours after i.v. administration of 10 mg/kg of Compound 6C in mice.
# Additionally a selective and sensitive method for detecting the presence of four compounds (Compounds 6A, 6B, 6C & 9) as CypD inhibitors in mouse plasma, brain and artificial cerebrospinal fluid is based on high performance liquid chromatography tandem mass spectrometry. Mass spectra were generated using Micromass Quattro Ultima “triple” quadrupole mass spectrometer equipped with Electrospray ionization interface. The method used for pharmacokinetic studies of compounds in mouse cerebrospinal fluid, plasma, and brain is accurate, precise, and specific with no matrix effect.
# [2] = test system: SK-N-SH cells; test: Cytochrome c oxidase (CcO) activity in Aβ1-42-treated cells; format: cell-based
# Procedure: The effect of the CypD inhibitors on cytochrome c oxidase (CcO) was studied. The effect of the CypD inhibitors on Aβ-induced mitochondrial respiratory function was assessed by determining cytochrome c oxidase (CcO) activity. CcO is a vital enzyme associated with the mitochondrial electron transport chain. SK-N-SH cells were treated for 48 hours with 5 μM of oligomer Aβ1-42 in the presence of 10-20 μM of CypD inhibitor C-9, after which samples were tested for CcO enzyme activity levels.
# [3] = target: CypD PPIase (Homo sapiens, UniProt P30405); test: CypD PPIase enzyme activity inhibition (real-time kinetics assay); format: biochemical; settings: for Inhibition of CypD PPIase activity (in words): reaction progress curves, 0.39 to 50 uM (Compound 9: 0.19 to 100 uM), 25° C.
# Sequence of CypD PPIase (P30405 30-207): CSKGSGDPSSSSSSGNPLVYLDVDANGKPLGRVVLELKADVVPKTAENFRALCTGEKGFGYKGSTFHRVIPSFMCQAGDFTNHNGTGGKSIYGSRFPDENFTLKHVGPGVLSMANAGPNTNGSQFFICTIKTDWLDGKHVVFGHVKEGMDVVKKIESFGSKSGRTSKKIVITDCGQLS
# Procedure: The ability of CypD inhibitors to inhibit CypD PPIase enzyme activity was determined using a previously utilized “standard” procedure (Kofron, J. L.; Kuzmic, P.; Kishore, V.; Colon-Bonilla, E.; Rich, D. H., Determination of kinetic constants for peptidyl prolyl cis-trans isomerases by an improved spectrophotometric assay. Biochemistry 1991, 30, 6127-34). The results are presented in FIGS. 2A-2D and compared to CsA in FIG. 2E.
# Linearity was maintained up to 5 minutes of incubation at 25° C. […] Linearity was maintained up to 5 minutes of incubation at 25° C. […] FIG. 10 show reaction progress curves collected for CypD activity in DMSO alone or at various Compound 6C concentrations ranging from 0.39 to 50 uM. Linearity was maintained up to 5 minutes of incubation at 25° C. […] FIG. 11 show reaction progress curves collected for CypD activity in DMSO alone or at various Compound 9 concentrations ranging from 0.19 to 100 uM. Linearity was maintained up to 5 minutes of incubation at 25° C.
# Since inhibition of CypD PPIase activity was essential for potentiation of Aβ cytotoxicity, Aβ-induced cytotoxicity can presumably be decreased if the Aβ-CypD interaction is blocked with small-molecule inhibitors like Compound 9.
# [4] = target: human recombinant CypD protein (Homo sapiens, UniProt P30405); test: Surface plasmon resonance (SPR) binding to immobilized CypD; settings: for Kd: 1:1 Langmuir binding fit, CypD immobilized on CM5 chip, read-out: KD (equilibrium dissociation constant); for Binding to CypD (in words): dose dependent
# Sequence of human recombinant CypD protein (P30405 30-207): as above
# Procedure: In vitro SPR was used to verify the ability of the CypD inhibitors to bind to human recombinant CypD protein, which correlates with its potential CypD inhibitory activity.
# Surface plasmon resonance (SPR) analysis of CypD-Pyrimidine derivative binding interaction, where the globally fit data (black lines) were overlaid with experimental data (greyish lines). Human recombinant CypD protein (10 μg/ml) was immobilized directly on the hydrophilic carboxy methylated dextran matrix of the CM5 sensor chip (Biacore-3000) using the standard primary amine coupling reaction according to standard procedures. Compound 9 (2.5, 5, 10, 15, 20 μM) was injected at a flow rate of 40 μl/min for the determination of the kinetic and equilibrium constants. All data analyses were carried out using BIA evaluation software, and sensor grams were processed by automatic correction for nonspecific bulk refractive index.
# The equilibrium dissociation constant (KD) was determined using a 1:1 Langmuir binding fit model and the association (kon) and dissociation (koff) rate constants were determined using Equations (1) and (2). dR/dt=kon×C×(Rmax−R)−koff×R (1)
# Where R represents the response unit, C is the concentration of the analyte, and KD=koff/kon (2)
# The obtained results were evaluated by χ^2 analysis and the kinetic parameters for Compound 9 are provided.
# [5] = test system: SK-N-SH cells; test: Aβ-induced neuronal cell death, MTT reduction assay; format: cell-based; settings: 10 and 20 μM
# Source text: Assays examined the effect of the CypD inhibitor compounds on Aβ-induced neuronal cell death, commonly observed in AD. […] The addition of various dosages of inhibitor to the cells in the presence of Aβ1-42 increased cell viability. […] Thus, this evidence provides support that inhibition of CypD with specific inhibitors can provide a beneficial and powerful therapeutic tool in AD treatment.
# [6] = test system: SK-N-SH cells; test: MTT reduction cell viability assay (toxicity of inhibitor alone); format: cell-based; settings: 0, 5, 10, 25, 50, and 100 μM in healthy SK-N-SH cells
# Source text: The effect of the CypD inhibitors on cell viability was studied. Excellent reversal effects of the CypD inhibitor on Aβ-affected processes were observed, including diminished mitochondrial swelling, and enhanced CcO activity and ATP production, assessment of the overall cell health of SK-N-SH cells treated with the CypD inhibitors were studied. A wide dosing range was utilized to examine the effect of the CypD inhibitors on cell viability using an MTT (3-(4,5-dimethylthiazol-2-yl)-2,5-diphenyltetrazolium_bromide) reduction assay (0, 5, 10, 25, 50, and 100 μM of inhibitor diluted in cell culture medium).
# [7] = test system: cortical mitochondria; test: Calcium-induced mitochondrial swelling assay; set-up: species or system mice; settings: mouse cortical mitochondria treated with Ca2+, compound added dose-dependently
# Source text: Mitochondrial swelling in response to calcium was also studied. It is known that CypD-deficient cortical mitochondria are resistant to Aβ- and calcium (Ca^2+)-induced mitochondrial swelling and mitochondrial permeability transition. […] In order to determine the relationship between Ca^2+ and mitochondrial swelling, cortical mitochondria were isolated from mice and subjected to a swelling assay. Mitochondria treated with Ca^2+ experienced excessive swelling.
# The fact that brain mitochondrial swelling was not affected by the inhibitors alone implies a symbiotic relationship between Ca^2+ and the inhibitor.
# [8] = test system: SK-N-SH cells; test: Cellular ATP levels in Aβ1-42-treated cells; format: cell-based; settings: 48 hours
# Procedure: The effect of the CypD inhibitors on the levels of adenosine-5′-triphosphate (ATP) was studied. To determine the effect of the CypD inhibitors on Aβ-induced energy metabolism impairment, cellular ATP levels were analyzed. SK-N-SH cells were exposed to 5 μM of Aβ1-42 in the presence of 10-20 μM of Compound 9. After 48 hours, we measured the ATP concentrations in the cell lysates.
SMILES,Blood-brain barrier penetration [1],Aβ-induced mitochondrial dysfunction (cytochrome c oxidase and ATP levels) [2],Inhibition of CypD PPIase activity (in words) [3],Kd [4] [µM],Binding to CypD (in words) [4],"CcO activity in Aβ-treated cells ([2]; 5 μM oligomer Aβ1-42, 10-20 μM inhibitor, 48 hours)",Cell viability in the presence of Aβ1-42 (MTT reduction) [5],"Cell viability (MTT reduction), inhibitor alone [6]","IC50 ([3]; real time fluorescence monitoring, read-out: IC50 inhibiting PPIase activity of CypD) [µM]",Calcium-induced mitochondrial swelling [7],"ATP levels in Aβ-treated cells ([8]; 5 μM Aβ1-42, 10-20 μM compound, cell lysates)",ATP levels in cells exposed to inhibitor versus vehicle-treated cells without Aβ1-42 ([8]; 10-20 μM compound)
CCOC(=O)C1=C(C)N=C2SC=C(CCc3ccccc3)N2C1c1cccc([N+](=O)[O-])c1 (centres unmarked) [Compound 6A],penetrate the blood-brain barrier,abolished Aβ-induced mitochondrial dysfunction,inhibits CypD activity; also recorded: effective in reducing CypD peptidyl prolyl isomerase enzyme activity,,,,,,,,,
Cc1nc(-c2ccc(OCC(C)C)c(C#N)c2)sc1C(=O)Nc1ccc(S(N)(=O)=O)cc1 [Compound 9],penetrate the blood-brain barrier,abolished Aβ-induced mitochondrial dysfunction,inhibits CypD activity; also recorded: effective in reducing CypD peptidyl prolyl isomerase enzyme activity,0.149,high binding affinity,rescued CcO activity,significant effect on cell health,no significant effect,1.49 ± 0.2,swelling was diminished,rescued ATP concentrations,comparable to those of vehicle-treated cells
CCOC(=O)C1=C(C)N=C2SC=C(CCc3ccccc3)N2C1c1ccc(O)cc1 (centres unmarked) [Compound 6B],penetrate the blood-brain barrier,abolished Aβ-induced mitochondrial dysfunction,inhibits CypD activity; also recorded: effective in reducing CypD peptidyl prolyl isomerase enzyme activity,0.248,high binding affinity,,,,,,,
CCOC(=O)C1=C(C)N=C2SC=C(CCc3ccccc3)N2C1c1ccc(F)cc1 (centres unmarked) [Compound 6C],penetrate the blood-brain barrier,abolished Aβ-induced mitochondrial dysfunction,inhibits CypD activity; also recorded: effective in reducing CypD peptidyl prolyl isomerase enzyme activity,,,,,,,,,

# — patent US9738615B2, “Cyclophilin D inhibitors” (The University of Kansas, priority 2014, dated 2017)
